Active and inactive are the calls of the source. No cut-off for these calls is given here.

For experiment [1], the system named is Staphylococcus aureus. Kind of experiment: Antimicrobial activity against Staphylococcus aureus ATCC 25923 assessed as microbial growth inhibition at 1 mg/ml incubated overnight at 37 degC. The experiment is classed as functional. Particulars: for zone of inhibition at 1000 µg/mL: read-out: IZ.
The test system of experiment [2] is Candida albicans. Kind of experiment: Antimicrobial activity against Candida albicans ATCC 10231 assessed as microbial growth inhibition at 1 mg/ml incubated overnight at 37 degC. The experiment is classed as functional, organism-based.
The test system of experiment [3] is Streptococcus pyogenes. Kind of experiment: Antimicrobial activity against Streptococcus pyogenes 345/1 assessed as microbial growth inhibition at 1 mg/ml incubated overnight at 37 degC. The experiment is classed as functional. Particulars: for zone of inhibition at 1000 µg/mL: read-out: IZ.
Experiment [4] deals with Staphylococcus aureus. Kind of experiment: Antimicrobial activity against methicillin-resistant Staphylococcus aureus 344/2-32 assessed as microbial growth inhibition at 1 mg/ml incubated overnight at 37 degC. The experiment is classed as functional. The note with it: for zone of inhibition at 1000 µg/mL: read-out: IZ.
The test system of experiment [5] is Escherichia coli. Kind of experiment: Antimicrobial activity against Escherichia coli ATCC 25922 assessed as microbial growth inhibition at 1 mg/ml incubated overnight at 37 degC. The experiment is classed as functional. Particulars: for zone of inhibition at 1000 µg/mL: read-out: IZ.
Experiment [6] has as its system Pseudomonas aeruginosa. Kind of experiment: Antimicrobial activity against Pseudomonas aeruginosa ATCC 27853 assessed as microbial growth inhibition at 1 mg/ml incubated overnight at 37 degC. The experiment is classed as functional. Particulars: for zone of inhibition at 1000 µg/mL: read-out: IZ.

Regarding `COc1cc(OC)c2ccc(-c3ccccc3)c3c2c1C=C(O)C3=O`, the zone of inhibition at 1000 µg/mL is 1 mm in experiment [1]; 1 mm in experiment [3]; 1 mm in experiment [4]; 1 mm in experiment [5]; 5 mm in experiment [6]. In experiment [2], the “inhibition zone (IZ)” value is “inactive”.
`COc1cc2cc(OC)c3oc4ccccc4c4ccc(c1=O)c2c34`: the “inhibition zone (IZ)” value in experiment [1], in experiment [2], in experiment [4] and in experiment [5] was “inactive” throughout. Besides, the zone of inhibition at 1000 µg/mL was determined as 2 mm in experiment [3] and 4 mm in experiment [6].
As to `COC1=Cc2cc(=O)oc3ccc(-c4ccccc4)c(c23)C1=O`, the “inhibition zone (IZ)” value in experiment [1], in experiment [2], in experiment [3], in experiment [4] and in experiment [6] was “inactive” each time. Further, the zone of inhibition at 1000 µg/mL in experiment [5] was found to be 1 mm.
For the compound `O=c1ccc2cc(O)c3oc4ccccc4c4ccc1c2c34`, the “inhibition zone (IZ)” value in experiment [1], in experiment [2], in experiment [4] and in experiment [5] was “inactive” each time. In addition, the figures for the zone of inhibition at 1000 µg/mL in experiment [3] and in experiment [6] were 1 mm and 3 mm, respectively.
Turning to `COC1=Cc2cc(OC)c(OC)c3ccc(-c4ccccc4)c(c23)C1=O`, the “inhibition zone (IZ)” value in experiment [1] and in experiment [2] was “inactive” throughout. Besides, the zone of inhibition at 1000 µg/mL in experiment [3], in experiment [4], in experiment [5] and in experiment [6] was 1 mm throughout.
As for `COC1=Cc2cc(O)c(OC)c3ccc(-c4ccccc4)c(c23)C1=O`, the zone of inhibition at 1000 µg/mL in experiment [1], in experiment [3], in experiment [5] and in experiment [6] was 1 mm in each case. For the same compound, the “inhibition zone (IZ)” value in experiment [2] and in experiment [4] was “inactive” each time.
Regarding `COC1OC(=O)c2ccc(-c3ccccc3)c3c(O)c(O)cc1c23` (stereo unspecified), the “inhibition zone (IZ)” value in experiment [1], in experiment [2] and in experiment [4] was “inactive” throughout. Also, the zone of inhibition at 1000 µg/mL in experiment [3], in experiment [5] and in experiment [6] was 1 mm each time.
Consider `COC1=Cc2ccc(OC)c3ccc(-c4ccccc4)c(c23)C1=O`, for which the “inhibition zone (IZ)” value in experiment [1], in experiment [2] and in experiment [4] was “inactive” each time. Further, the zone of inhibition at 1000 µg/mL was determined as 1 mm in experiment [3], 1 mm in experiment [5] and 3 mm in experiment [6].
Turning to `COc1cc2ccc(=O)c3ccc4c5ccccc5oc1c4c23`, the zone of inhibition at 1000 µg/mL was 1 mm in experiment [1], 3 mm in experiment [3], 1 mm in experiment [4] and 3 mm in experiment [6]. Further, the “inhibition zone (IZ)” value in experiment [2] and in experiment [5] was “inactive” throughout.
As to `COC(=O)Nc1nc2ccccc2[nH]1`, the “inhibition zone (IZ)” value in experiment [2] was “inactive”.
For the compound `COc1cc2cc(O)c3oc4ccccc4c4ccc(c1=O)c2c34`, the “inhibition zone (IZ)” value in experiment [1], in experiment [2] and in experiment [4] was “inactive” each time. Moreover, the zone of inhibition at 1000 µg/mL was 2 mm in experiment [3], 1 mm in experiment [5] and 5 mm in experiment [6].
With `CC1(C)S[C@@H]2[C@H](NC(=O)[C@H](N)c3ccccc3)C(=O)N2[C@H]1C(=O)O` [AMPICILLIN], the zone of inhibition at 1000 µg/mL was 15 mm in experiment [1], 20 mm in experiment [3], 3 mm in experiment [4] and 2 mm in experiment [6]. The “inhibition zone (IZ)” value in experiment [5] is “inactive”.

For the origin of these results see ChEMBL document CHEMBL3588781, “HPLC-NMR and HPLC-MS Profiling and Bioassay-Guided Identification of Secondary Metabolites from the Australian Plant Haemodorum spicatum” (2015).
